In patent publication EP2951180B1, “2,6,7,8 SUBSTITUTED PURINES AS HDM2 INHIBITORS” (Merck Sharp & Dohme Corp., priority 2013, dated 2014) one finds IC50 data, which are given here for 29 compounds.

One may read the IC50 as the concentration needed to halve the response being measured.

In the assay the target is T1, HDM2 (Homo sapiens, UniProt Q00987).
T1 construct: Thioredoxin (N); made in house; host or cells: E. coli strain BL21(DE3)Rosetta
T1 sequence (Q00987 17-125): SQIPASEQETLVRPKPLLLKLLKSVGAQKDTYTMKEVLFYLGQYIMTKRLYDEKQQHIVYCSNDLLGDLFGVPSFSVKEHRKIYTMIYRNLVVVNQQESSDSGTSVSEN
Put plainly: HDM2 FRET assay (inhibition of binding of FITC labeled p53-pocket peptide to HDM2). The settings on record: Table 9; read-out: FRET IC50. Summed up: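 Final: 0.5 nM His-HDM2, 3 nM FITC peptide, 0.25 nM Tb anti-His Ab; PBS, 0.01% BSA, 0.01% Tween-20; 0.1% DMSO.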
On to `C[C@@H](Nc1nc(C(=O)O)nc2nc(N3CCOC4(CCCC4)C3)n(Cc3ccc(C(F)(F)F)cc3)c12)C1CCC1` [Example 9.25, 6-{[(1R)-1-cyclobutylethyl]amino}-8-(6-oxa-9-azaspiro[4.5]dec-9-yl)-7-[4-(trifluoromethyl)benzyl]-7H-purine-2-carboxylic acid], for which the IC50 stood at 19.4 nM.

Turning to `C#CCC1CN(c2nc3nc(C(=O)O)nc(N[C@H](C)C4CCC4)c3n2Cc2ccc(C(F)(F)F)cc2)CCO1` (stereo partly drawn) [Example 9.26, 6-{[(1R)-1-cyclobutylethyl]amino}-8-(2-prop-2-yn-1-ylmorpholin-4-yl)-7-[4-(trifluoromethyl)benzyl]-7H-purine-2-carboxylic acid], the IC50 stood at 34.2 nM. The result for `C[C@@H](Nc1nc(C(=O)O)nc2nc(N3C[C@H]4C[C@@H]3CO4)n(Cc3ccc(C(F)(F)F)cc3)c12)C1CCC1` [Example 9.27, 6-{[(1R)-1-cyclobutylethyl]amino}-8-[(1R,4R)-2-oxa-5-azabicyclo [2.2.1]hept-5-yl]-7-[4-(trifluoromethyl)benzyl]-7H-purine-2-carboxylic acid] reads 23.7 nM; that for `C[C@@H](Nc1nc(C(=O)O)nc2nc(N3CCOC[C@@H]3C)n(Cc3ccc(Cl)cc3)c12)C1CC1` [Example 9.28, 7-(4-chlorobenzyl)-6-{[(1R)-1-cyclopropylethyl]amino}-8-[(3S)-3-methylmorpholin-4-yl]-7H-purine-2-carboxylic acid], 143 nM. In the case of `C[C@@H](Nc1ncnc2nc(N[C@@H](CO)c3ccccc3)n(Cc3ccc(C(F)(F)F)cc3)c12)C1CCC1` [Example 9.29] it was 4470 nM; in that of `CC(Nc1nc2nc(C(=O)O)nc(N[C@H](C)C3CCC3)c2n1Cc1ccc(C(F)(F)F)cc1)c1cccnc1` (stereo partly drawn) [Example 9.30, 6-{[(1R)-1-cyclobutylethyl]amino}-8-[(1-pyridin-3-ylethyl)amino]-7-[4-(trifluoromethyl)benzyl]-7H-purine-2-carboxylic acid], 3.05 nM; in that of `CC(Nc1nc2nc(C(=O)O)nc(N[C@H](C)C3CCC3)c2n1Cc1ccc(C(F)(F)F)cc1)c1ccccn1` (stereo partly drawn) [Example 9.31, 6-{[(1R)-1-cyclobutylethyl]amino}-8-[(1-pyridin-2-ylethyl)amino]-7-[4-(trifluoromethyl)benzyl]-7H-purine-2-carboxylic acid], 0.526 nM. For the compound `C[C@@H](Nc1nc(C(=O)O)nc2nc(N3CCOC[C@@H]3C)n(Cc3ccc(C(F)(F)F)cc3)c12)C1CCC1` [Example 9.32, 6-{[(1R)-1-cyclobutylethyl]amino}-8-[(3S)-3-methylmorpholin-4-yl]-7-[4-(trifluoromethyl)benzyl]-7H-purine-2-carboxylic acid], the IC50 was found to be 15.2 nM.

On to `C[C@@H]1COCCN1c1nc2nc(C(=O)O)nc(N[C@H](C)C3CCC3)c2n1Cc1ccc(C(F)(F)F)cc1` [Example 9.35], for which the IC50 is 7.17 nM. The result for `CC[C@H](Nc1nc2nc(C(=O)O)nc(N[C@H](C)C3CCC3)c2n1Cc1ccc(C(F)(F)F)cc1)c1ccccc1` [Example 9.36, 6-{[(1R)-1-cyclobutylethyl]amino}-8-{[(1S)-1-phenylpropyl]amino}-7-[4-(trifluoromethyl)benzyl]-7H-purine-2-carboxylic acid] reads 0.862 nM; that for `C[C@@H](Nc1nc(C(=O)O)nc2nc(N(C)[C@@H](C)c3ccccc3)n(Cc3ccc(C(F)(F)F)cc3)c12)C1CCC1` [Example 9.37, 6-{[(1R)-1-cyclobutylethyl]amino}-8-{methyl[(1S)-1-phenylethyl]amino}-7-[4-(trifluoromethyl)benzyl]-7H-purine-2-carboxylic acid], 21.6 nM; that for `C[C@@H](Nc1nc(C(=O)O)nc2nc(NC(=O)c3ccccc3)n(Cc3ccc(C(F)(F)F)cc3)c12)C1CCC1` [Example 9.38], 657 nM. Consider `C[C@H](Nc1nc2nc(C(=O)O)nc(N[C@H](C)C3CCC3)c2n1Cc1ccc(C(F)(F)F)cc1)c1cccc(F)c1` [Example 9.39, 6-{[(1R)-1-cyclobutylethyl]amino}-8-{[(1S)-1-(3-fluorophenyl)ethyl]amino}-7-[4-(trifluoromethyl)benzyl]-7H-purine-2-carboxylic acid], for which the IC50 turned out to be 0.753 nM. The result for `CC1CCCN(c2nc3nc(C(=O)O)nc(N[C@H](C)C4CCC4)c3n2Cc2ccc(C(F)(F)F)cc2)C1` (stereo partly drawn) [Example 9.40, 6-{[(1R)-1-cyclobutylethyl]amino}-8-(3-methylpiperidin-1-yl)-7-[4-(trifluoromethyl)benzyl]-7H-purine-2-carboxylic acid] reads 12.2 nM; that for `C[C@@H](Nc1nc(C(=O)O)nc2nc(N3CCCC(c4ccccc4)C3)n(Cc3ccc(C(F)(F)F)cc3)c12)C1CCC1` (stereo partly drawn) [Example 9.41, 6-{[(1R)-1-cyclobutylethyl]amino}-8-(3-phenylpiperidin-1-yl)-7-[4-(trifluoromethyl)benzyl]-7H-purine-2-carboxylic acid], 27.3 nM. Turning to `CC(C)CC(=O)Nc1nc2nc(C(=O)O)nc(N[C@H](C)C3CCC3)c2n1Cc1ccc(C(F)(F)F)cc1` [Example 9.42, 6-{[(1R)-1-cyclobutylethyl]amino}-8-[(3-methylbutanoyl)amino]-7-[4-(trifluoromethyl)benzyl]-7H-purine-2-carboxylic acid], the IC50 was 324 nM.

For `C[C@@H](Nc1nc(C(=O)O)nc2nc(NC(=O)C3CCCCC3)n(Cc3ccc(C(F)(F)F)cc3)c12)C1CCC1` [Example 9.43, 6-{[(1R)-1-cyclobutylethyl]amino}-8-[(cyclohexylcarbonyl)amino]-7-[4-(trifluoromethyl)benzyl]-7H-purine-2-carboxylic acid], the IC50 was determined as 343 nM. The result for `C[C@@H](Nc1nc(C(=O)O)nc2nc(N3CCCCC3c3ccccc3)n(Cc3ccc(C(F)(F)F)cc3)c12)C1CCC1` (stereo partly drawn) [Example 9.44, 6-{[(1R)-1-cyclobutylethyl]amino}-8-(2-phenylpiperidin-1-yl)-7-[4-(trifluoromethyl)benzyl]-7H-purine-2-carboxylic acid] reads 3.67 nM; that for `C[C@@H](Nc1nc(C(=O)O)nc2nc(N3CCCC(C)(C)C3)n(Cc3ccc(C(F)(F)F)cc3)c12)C1CCC1` [Example 9.45, 6-{[(1R)-1-cyclobutylethyl]amino}-8-(3,3-dimethylpiperidin-1-yl)-7-[4-(trifluoromethyl)benzyl]-7H-purine-2-carboxylic acid], 7.57 nM; that for `CC(C)C1CCCN(c2nc3nc(C(=O)O)nc(N[C@H](C)C4CCC4)c3n2Cc2ccc(C(F)(F)F)cc2)C1` (stereo partly drawn) [Example 9.46, 6-{[(1R)-1-cyclobutylethyl]amino}-8-[3-(1-methylethyl)piperidin-1-yl]-7-[4-(trifluoromethyl)benzyl]-7H-purine-2-carboxylic acid], 26.2 nM. The result for `CCCN(c1nc2nc(C(=O)O)nc(N[C@H](C)C3CCC3)c2n1Cc1ccc(C(F)(F)F)cc1)[C@@H](C)c1ccccc1` [Example 9.49, 6-{[(1R)-1-cyclobutylethyl]amino}-8-{[(1S)-1-phenylethyl] (propyl)amino}-7-[4-(trifluoromethyl)benzyl]-7H-purine-2-carboxylic acid] reads 22.8 nM; that for `C[C@@H](Nc1nc(C(=O)O)nc2nc(N3CCOC[C@H]3c3ccccc3)n(Cc3ccc(C(F)(F)F)cc3)c12)C1CCC1` [Example 9.50, 6-{[(1R)-1-cyclobutylethyl]amino}-8-[(3R)-3-phenylmorpholin-4-yl]-7-[4-(trifluoromethyl)benzyl]-7H-purine-2-carboxylic acid], 1.76 nM. As to `C[C@@H](Nc1nc(C(=O)O)nc2nc(N3CCOC[C@@H]3c3ccccc3)n(Cc3ccc(C(F)(F)F)cc3)c12)C1CCC1` [Example 9.51, 6-{[(1R)-1-cyclobutylethyl]amino}-8-[(3S)-3-phenylmorpholin-4-yl]-7-[4-(trifluoromethyl)benzyl]-7H-purine-2-carboxylic acid], the IC50 amounted to 120 nM. In the case of `C[C@@H](Nc1nc(C(=O)O)nc2nc(N3CCCC3c3ccccc3)n(Cc3ccc(C(F)(F)F)cc3)c12)C1CCC1` (stereo partly drawn) [Example 9.52, 6-{[(1R)-1-cyclobutylethyl]amino}-8-(2-phenylpyrrolidin-1-yl)-7-[4-(trifluoromethyl)benzyl]-7H-purine-2-carboxylic acid] it was 31.9 nM; in that of `C[C@@H](Nc1nc(C(=O)O)nc2nc(N3CCCCC3c3ccccn3)n(Cc3ccc(C(F)(F)F)cc3)c12)C1CCC1` (stereo partly drawn) [Example 9.53, 6-{[(1R)-1-cyclobutylethyl]amino}-8-(2-pyridin-2-ylpiperidin-1-yl)-7-[4-(trifluoromethyl)benzyl]-7H-purine-2-carboxylic acid], 26.4 nM. For the compound `C[C@@H](Nc1nc(C(=O)O)nc2nc(N3CCC3c3ccccc3)n(Cc3ccc(C(F)(F)F)cc3)c12)C1CCC1` (stereo partly drawn) [Example 9.54, 6-{[(1R)-1-cyclobutylethyl]amino}-8-(2-phenylazetidin-1-yl)-7-[4-(trifluoromethyl)benzyl]-7H-purine-2-carboxylic acid], the IC50 is 23.9 nM. The result for `C[C@@H](Nc1nc(-c2noc(=O)[nH]2)nc2nc(N3CCOC[C@H]3c3ccccc3)n(Cc3ccc(C(F)(F)F)cc3)c12)C1CCC1` [Example 9.57, 3-(6-{[(1R)-1-cyclobutylethyl]amino}-8-[(3R)-3-phenylmorpholin-4-yl]-7-[4-(trifluoromethyl)benzyl]-7H-purin-2-yl)-1,2,4-oxadiazol-5(4H)-one] reads 1.72 nM; that for `CC[C@@H](c1ccccc1)N(C)c1nc2nc(C(=O)O)nc(N[C@H](C)C3CCC3)c2n1Cc1ccc(C(F)(F)F)cc1` [Example 9.58, 6-{[(1R)-1-cyclobutylethyl]amino}-8-{methyl[(1S)-1-phenylpropyl]amino}-7-[4-(trifluoromethyl)benzyl]-7H-purine-2-carboxylic acid], 16.4 nM; that for `Cc1cc(C)n(-c2nc3nc(C(=O)O)nc(N[C@H](C)C4CCC4)c3n2Cc2ccc(C(F)(F)F)cc2)n1` [Example 9.59, 6-{[(1R)-1-cyclobutylethyl]amino}-8-(3,5-dimethyl-1H-pyrazol-1-yl)-7-[4-(trifluoromethyl)benzyl]-7H-purine-2-carboxylic acid], 292 nM.
